Values of other authors in patent US10500240B2, “Use of terminalia chebula extract for treatment of osteoarthritis” (Natreon, Inc., priority 2013, dated 2019).

Key:
maltase = conditions: reversible and non-competitive inhibitor; read-out: K(i) value, maltase
HepG2 cells = conditions: with doxorubicin

- Ki (maltase): 6.6 µM
- IC50 (COX-1): 15 ± 0.288 µM
- IC50 (5-LOX): 2.1 ± 0.057 µM
SMILES: O=C(O)CC1C(=O)OC2C3COC(=O)c4cc(O)c(O)c(O)c4-c4c(cc(O)c(O)c4O)C(=O)OC2C(OC(=O)c2cc(O)c(O)c4c2C1C(O)C(=O)O4)C(OC(=O)c1cc(O)c(O)c(O)c1)O3 [Chebulagic acid, beta-1-O-galloyl-2,4-chebuloyl-3,6-(R)-hexahydroxydiphenoyl-D-glucose]
- enhanced the cytotoxicity of doxorubicin in HepG2 cells (HepG2 cells): 20 fold
